Data taken from patent US10633419B2, “Immunomodulators” (BRISTOL-MYERS SQUIBB COMPANY, priority 2014, dated 2020).
Starred links: 1 amine or outer side, 2 acyl side, 3 side chain; linkers in the order of their positions; H or OH if unused. Positions of bridges follow the written chain, without caps; N, C: chain ends. Non-standard residues stand in square brackets, D forms with d. Residues, ends and D or L forms follow the SMILES beside them. Groups on a side chain read outwards from the residue. *: point of attachment. X6 = O=C(O)CCCCCCCCCCCCCCCCC(=O)N[C@@H](CCC(=O)NCCCOCCOCCOCCCN*)C(=O)O; X13 = O=C(O)CCCCCCCCCCCCCCC(=O)N[C@@H](CCC(=O)NCCCOCCOCCOCCCN*)C(=O)O; X11 = O=C(O)CCCCCCCCCCCCC(=O)N[C@@H](CCC(=O)NCCCOCCOCCOCCCN*)C(=O)O; Trp(1-CH2COOH) = N[C@@H](Cc1cn(CC(=O)O)c2ccccc12)C(=O)O; NH(CH2)14COOH = O=C(O)CCCCCCCCCCCCCCN*; γGlu = O=C(O)[C@H](CCC(=O)[*:2])N[*:1]; d(cisHyp) = O=C(O)[C@H]1C[C@@H](O)CN1; NH(CH2)12COOH = O=C(O)CCCCCCCCCCCCN*; PEG6 = NCCOCCOCCOCCOCCOCCOCCC(=O)O; Stearoyl = CCCCCCCCCCCCCCCCCC(=O)*; Hyp = O=C(O)[C@@H]1C[C@@H](O)CN1; Myristoyl = CCCCCCCCCCCCCC(=O)*; Undecanoyl = CCCCCCCCCCC(=O)*; NMeNle = CCCC[C@H](NC)C(=O)O; Pip = O=C(O)[C@@H]1CCCCN1; NMeA = CN[C@@H](C)C(=O)O; Pra = C#CC[C@H](N)C(=O)O; Dab = NCC[C@H](N)C(=O)O; Dap = NC[C@H](N)C(=O)O

molecular target: T1, PD-L1 (Homo sapiens, UniProt Q9NZQ7); assay: PD-1/PD-L1 Homogenous Time-Resolved Fluorescence (HTRF) binding assay (PD-1-Ig/PD-L1-His); settings: inhibition of PD-1-Ig binding to PD-L1-TVMV-His; value given as number; read-out: HTRF IC50
T1 construct: hPDL1(19-239)-TVMV-His; made in house; host or cells: HEK293T
Outline: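 Inhibitors pre-incubated 15 min with PD-L1-His (10 nM final), then PD-1-Ig (20 nM final) added for 15 min in dPBS/0.1% BSA/0.05% Tween-20. Eu-cryptate anti-Ig (1 nM) and APC anti-His (20 nM) added, 30 min equilibration, 665/620 nm HTRF ratio read.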

T1 sequence (Q9NZQ7 with tags, fused parts or gaps): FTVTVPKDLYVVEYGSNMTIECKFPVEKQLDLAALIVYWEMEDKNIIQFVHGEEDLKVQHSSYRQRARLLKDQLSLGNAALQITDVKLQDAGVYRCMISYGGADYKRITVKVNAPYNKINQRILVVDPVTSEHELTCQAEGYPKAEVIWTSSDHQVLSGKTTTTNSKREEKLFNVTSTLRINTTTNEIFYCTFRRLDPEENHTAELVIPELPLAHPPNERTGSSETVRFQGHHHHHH

**Q.** How did the IC50 turn out when `CCCCCCCCCCCCCCCCCC(=O)NCCCC[C@H](NC(=O)[C@@H]1CSCC(=O)N[C@@H](Cc2ccc(O)cc2)C(=O)N(C)[C@@H](C)C(=O)N[C@@H](CC(N)=O)C(=O)N2CCC[C@H]2C(=O)N[C@@H](CCN)C(=O)N[C@@H](CC(C)C)C(=O)N2C[C@H](O)C[C@H]2C(=O)N[C@@H](Cc2c[nH]c3ccccc23)C(=O)N[C@@H](CO)C(=O)N[C@@H](Cc2c[nH]c3ccccc23)C(=O)N(C)[C@@H](CCCC)C(=O)N(C)[C@@H](CCCC)C(=O)N[C@@H](CCCNC(=N)N)C(=O)N1)C(N)=O` [Example 11001] ({CH2CO}-Y[NMeA]NP[Dab]L[Hyp]WSW[NMeNle][NMeNle]RCK(Stearoyl)-NH2; thioether N-14) was run?
**A.** Its IC50 is 952 nM.

**Q.** Which IC50 does the source give for `CCCCCCCCCCC(=O)NCCCC[C@H](NC(=O)CCOCCOCCOCCOCCOCCOCCNC(=O)[C@@H]1CSCC(=O)N[C@@H](Cc2ccc(O)cc2)C(=O)N(C)[C@@H](C)C(=O)N[C@@H](CC(N)=O)C(=O)N2CCC[C@H]2C(=O)N[C@@H](CN)C(=O)N[C@@H](CCC(N)=O)C(=O)N2C[C@H](O)C[C@@H]2C(=O)N[C@@H](Cc2c[nH]c3ccccc23)C(=O)N[C@@H](CO)C(=O)N[C@@H](Cc2cn(CC(=O)O)c3ccccc23)C(=O)N(C)[C@@H](CCCC)C(=O)N(C)[C@@H](CCCC)C(=O)N[C@@H](CC(C)C)C(=O)N1)C(=O)O` [Example 11062] ({CH2CO}-Y[NMeA]NP[Dap]Q[d(cisHyp)]WS[Trp(1-CH2COOH)][NMeNle][NMeNle]LC[PEG6]K(Undecanoyl)-OH; thioether N-14) here?
**A.** Its IC50 is 456 nM.

same assay, conditions: inhibition of PD-1-Ig binding to PD-L1-TVMV-His; value given as range class; read-out: HTRF IC50

**Q.** Which IC50 does the source give for `C#CC[C@H](NC(=O)CNC(=O)[C@@H]1CSCC(=O)N[C@@H](Cc2ccc(O)cc2)C(=O)N2CCCC[C@H]2C(=O)N[C@@H](CC(N)=O)C(=O)N2CCC[C@H]2C(=O)N[C@@H](CN)C(=O)N[C@@H](CC(C)C)C(=O)N2C[C@H](O)C[C@H]2C(=O)N[C@@H](Cc2c[nH]c3ccccc23)C(=O)N[C@@H](CCN)C(=O)N[C@@H](Cc2cn(CC(=O)O)c3ccccc23)C(=O)N(C)[C@@H](CCCC)C(=O)N(C)[C@@H](CCCC)C(=O)N[C@@H](CCC(=O)O)C(=O)N1)C(=O)O` [INT130AJ] ({CH2CO}-Y[Pip]NP[Dap]L[Hyp]W[Dab][Trp(1-CH2COOH)][NMeNle][NMeNle]ECG[Pra]-OH; thioether N-14) here?
**A.** Its IC50 is 0.3 to 9.9 nM.

**Q.** How did the IC50 turn out when `CCCC[C@H]1C(=O)N(C)[C@@H](CCCC)C(=O)N[C@@H](CC(C)C)C(=O)N[C@H](C(=O)NCC(=O)N[C@@H](CC(=O)NCCCOCCOCCOCCCNC(=O)CC[C@H](NC(=O)CCCCCCCCCCCCCCCCC(=O)O)C(=O)O)C(=O)O)CSCC(=O)N[C@@H](Cc2ccc(O)cc2)C(=O)N(C)[C@@H](C)C(=O)N[C@@H](CC(N)=O)C(=O)N2CCC[C@H]2C(=O)N[C@@H](CN)C(=O)N[C@@H](CC(C)C)C(=O)N2C[C@H](O)C[C@@H]2C(=O)N[C@@H](Cc2c[nH]c3ccccc23)C(=O)N[C@@H](CCN)C(=O)N[C@@H](Cc2cn(CC(=O)O)c3ccccc23)C(=O)N1C` [Example 11160] ({CH2CO}-Y[NMeA]NP[Dap]L[d(cisHyp)]W[Dab][Trp(1-CH2COOH)][NMeNle][NMeNle]LCGD(X6)-OH; thioether N-14) was run?
**A.** Its IC50 is 100 to 1600 nM.

**Q.** `CCCC[C@H]1C(=O)N(C)[C@@H](CCCC)C(=O)N[C@@H](CC(C)C)C(=O)N[C@H](C(=O)NCC(=O)N[C@H](CC(=O)O)C(=O)NCCCCCCCCCCCCCCC(=O)O)CSCC(=O)N[C@@H](Cc2ccc(O)cc2)C(=O)N(C)[C@@H](C)C(=O)N[C@@H](CC(N)=O)C(=O)N2CCC[C@H]2C(=O)N[C@@H](CN)C(=O)N[C@@H](CC(C)C)C(=O)N2C[C@H](O)C[C@H]2C(=O)N[C@@H](Cc2c[nH]c3ccccc23)C(=O)N[C@@H](CCN)C(=O)N[C@@H](Cc2cn(CC(=O)O)c3ccccc23)C(=O)N1C` [Example 11195] ({CH2CO}-Y[NMeA]NP[Dap]L[Hyp]W[Dab][Trp(1-CH2COOH)][NMeNle][NMeNle]LCG[dD]-{NH(CH2)14COOH}; thioether N-14) was tested. Which IC50 did it give?
**A.** Its IC50 is 10 to 99 nM.

**Q.** `CCCCCCCCCCCCCC(=O)N[C@@H](CCC(=O)NCCCC[C@H](NC(=O)[C@H](CC(=O)O)NC(=O)CNC(=O)CNC(=O)[C@@H]1CSCC(=O)N[C@@H](Cc2ccc(O)cc2)C(=O)N(C)[C@@H](C)C(=O)N[C@@H](CC(=O)O)C(=O)N2CCC[C@H]2C(=O)N[C@@H](Cc2cnc[nH]2)C(=O)N[C@@H](CC(C)C)C(=O)N2C[C@H](O)C[C@H]2C(=O)N[C@@H](Cc2c[nH]c3ccccc23)C(=O)N[C@@H](CO)C(=O)N[C@@H](Cc2c[nH]c3ccccc23)C(=O)N(C)[C@@H](CCCC)C(=O)N(C)[C@@H](CCCC)C(=O)N[C@@H](CCCNC(=N)N)C(=O)N1)C(N)=O)C(=O)O` [Example 11123] ({CH2CO}-Y[NMeA]DPHL[Hyp]WSW[NMeNle][NMeNle]RCGGDK([γGlu-Myristoyl])-NH2; thioether N-14) was tested. Which IC50 did it give?
**A.** Its IC50 is 10 to 99 nM.

**Q.** For `CCCC[C@H]1C(=O)N(C)[C@@H](CCCC)C(=O)N[C@@H](CC(C)C)C(=O)N[C@H](C(=O)NCC(=O)N[C@@H](CC(=O)O)C(=O)N[C@@H](CCC(=O)NCCCOCCOCCOCCCNC(=O)CC[C@H](NC(=O)CCCCCCCCCCCCCCC(=O)O)C(=O)O)C(=O)O)CSCC(=O)N[C@@H](Cc2ccc(O)cc2)C(=O)N(C)[C@@H](C)C(=O)N[C@@H](CC(N)=O)C(=O)N2CCC[C@H]2C(=O)N[C@@H](CN)C(=O)N[C@@H](CC(C)C)C(=O)N2C[C@H](O)C[C@H]2C(=O)N[C@@H](Cc2c[nH]c3ccccc23)C(=O)N[C@@H](CCN)C(=O)N[C@@H](Cc2cn(CC(=O)O)c3ccccc23)C(=O)N1C` [Example 11170] ({CH2CO}-Y[NMeA]NP[Dap]L[Hyp]W[Dab][Trp(1-CH2COOH)][NMeNle][NMeNle]LCGDE(X13)-OH; thioether N-14), which IC50 is on record?
**A.** Its IC50 is 0.3 to 9.9 nM.

**Q.** `CCCC[C@H]1C(=O)N(C)[C@@H](CCCC)C(=O)N[C@@H](CC(C)C)C(=O)N[C@H](C(=O)NCC(=O)N[C@@H](CC(=O)O)C(=O)NCCCOCCOCCOCCCNC(=O)CC[C@H](NC(=O)CCCCCCCCCCCCC(=O)O)C(=O)O)CSCC(=O)N[C@@H](Cc2ccc(O)cc2)C(=O)N(C)[C@@H](C)C(=O)N[C@@H](CC(N)=O)C(=O)N2CCC[C@H]2C(=O)N[C@@H](CN)C(=O)N[C@@H](CC(C)C)C(=O)N2C[C@H](O)C[C@H]2C(=O)N[C@@H](Cc2c[nH]c3ccccc23)C(=O)N[C@@H](CCN)C(=O)N[C@@H](Cc2cn(CC(=O)O)c3ccccc23)C(=O)N1C` [Example 11254] ({CH2CO}-Y[NMeA]NP[Dap]L[Hyp]W[Dab][Trp(1-CH2COOH)][NMeNle][NMeNle]LCGD-X11; thioether N-14) was tested. Which IC50 did it give?
**A.** Its IC50 is 0.3 to 9.9 nM.

**Q.** With `CCCC[C@H]1C(=O)N(C)[C@@H](CCCC)C(=O)N[C@@H](CC(C)C)C(=O)N[C@H](C(=O)NCC(=O)NCC(=O)N[C@@H](CC(=O)O)C(=O)NCCCCCCCCCCCCC(=O)O)CSCC(=O)N[C@@H](Cc2ccc(O)cc2)C(=O)N(C)[C@@H](C)C(=O)N[C@@H](CC(N)=O)C(=O)N2CCC[C@H]2C(=O)N[C@@H](CN)C(=O)N[C@@H](CC(C)C)C(=O)N2C[C@H](O)C[C@H]2C(=O)N[C@@H](Cc2c[nH]c3ccccc23)C(=O)N[C@@H](CCN)C(=O)N[C@@H](Cc2cn(CC(=O)O)c3ccccc23)C(=O)N1C` [Example 11221] ({CH2CO}-Y[NMeA]NP[Dap]L[Hyp]W[Dab][Trp(1-CH2COOH)][NMeNle][NMeNle]LCGGD-{NH(CH2)12COOH}; thioether N-14) as the compound, how does the IC50 read?
**A.** Its IC50 is 10 to 99 nM.
